Experimental data from patent US6277383A, “Ryegrass pollen allergen” (University of Melbourne, priority 1995, dated 2001).

Columns and labels:
MAb 12.3 = test: Antibody screening of lambda-gt 11 cDNA clones: binding of MAb 12.3; parameters: key to Binding of MAb 12.3: ++: strongest binding; -: no binding; details: protein expressed by lambda-gt 11 clone in E. coli Y1090, plaque lift
Experimental: (§1) Poly (A+) mRNA isolated from mature rye grass pollen by the phenol method ([…] and Michaels, (1984) Plant Mol. Biol. Rep., 2:24-28) was used to construct a cDNA library in the vector lambda-gt 11. The library was then screened with antibody probes to detect sequences expressing Group I proteins. E. coli […] transfected with 3×10^4 recombinant phages were plated and incubated at 42° C. for 3 h. The plates were overlaid with a dry 132 mm nitrocellulose (NC) filter previously soaked in 10 mm IPTG and transferred to 37° C. After incubation for 3 h the filters were carefully peeled off and incubated in 20 ml per filter of MTBS (10% w/v non-fat milk powder, 50 mm Tris-HCI, pH 7.6, 150 mM Nacl) for 30 min. at room temperature. A second set of NC filters was placed on phage plates and after incubating for 3 h were treated as above. Both sets of NC filters were tested for binding of MAb 40.1 to plaques by the method described in Huynh et al. (1985) In: DNA Cloning, a practical approach, Glover, D. M. (ed.) Vol. 1, pp. 49-78, IRL Press, Oxford, England. The antibody positive plaques were picked, purified, then replated and tested for binding to probes. The positive clones were plaque-purified and tested for IgE binding using sera from grass pollen-allergic subjects. Eighteen clones were selected as encoding proteins recognized by both Lol p I-specific MAbs and IgE antibodies (Table 1). The largest of the cDNA clones, 1.2kb in size, that expressed rye-grass allergenic protein was initially selected for further characterization and sequencing, and designated clone lambda-12R (FIG. 1a).

MAb 40.1 = test: Antibody screening of lambda-gt 11 cDNA clones: binding of MAb 40.1; parameters: key: ++: strongest binding; -: no binding; details: protein expressed by lambda-gt 11 clone in E. coli Y1090, plaque lift
Experimental: as §1

[1] = test system: IgE from sera of allergic indivs.; test: Screening of lambda-gt 11 cDNA clones for IgE binding; parameters: species or system human; key: ++: strongest binding; -: no binding; details: protein expressed by lambda-gt 11 clone, plaque lift
Experimental: as §1

[2] = Two dimensional gel electrophoresis of ryegrass pollen proteins (pI); assay type: physicochemical, Lolium perenne; details: allergen spot on two dimensional gel
Experimental: (§2) Two dimensional (2D)-PAGE was performed in a mini-Protean II 2-D cell (Biorad, Richmond, Calif.) according to the manufacturer instructions. The proteins were diluted 1:1 in 4% CHAPS. […] The first dimension gel was run for 3.5 hours. The econd dimension gel was run for 45 minutes. Proteins on 2D-PAGE gels were silver stained to reveal the protein profile.

[3] = test system: IgE affinity purified from recombinant allergens and IgE from whole serum of allergic individuals; test: Two-dimensional Western blot: IgE binding to allergens; parameters: species or system human; details: IgE preparations that bind: AP12R, AP13R, AP19R = affinity purified from recombinant Lol p Ib.1 fragment IH, Lol p Ia clone 13R, Lol p Ib.2; TIgE = whole serum
Text: Serum used in the experiment to identify allergen regions of Lol p Ia and Lol p Ib was collected by Dr. R. Phomley at the Epworth Hospital (Richmond, Australia) from patients with a history of allergy to ryegrass pollen and a positive skin test to ryegrass pollen extract. IgE was affinity-purified from recombinant allergens as previously described (Singh, et al., (1991) Proc. Nat'l Acad. Sci. USA, […]; Example 2) except recombinant proteins were derived from lambda-gt11 culture rather than pGEX cultures.
as §2
Conditions for electrophoresis and Western blotting and for the processing of Western blots with MAbs and IgE were as described by Singh, et al., (1985) Int. Arch. Allergy Appl. Immun., 78:300.

[4] = test system: human IgE of individual sera; test: Peptide dot blot immunoassay: human IgE; assay type: binding; details: for IgE Binding (symbol): sera diluted 1:4
Experimental: (§3) The peptides were dissolved in water to give a 1.6 mM stock solution. Insoluble peptides were dissolved by sonication (Branson Sonifier 450, USA) for 1 minute.
(§4) The peptides were immobilized onto nitrocellulose (NC) filter by using a modified method published elsewhere (Sithigonglu (1991) J. Immunol. Methods, 141:23-32). Two μl of the peptide stock solutions were spotted on the NC filter (Schleicher & Schuell, W. Germany) about 1 cm apart. After the strips were dried and baked at 80° C. for one hour, they were fixed by exposure, in a tightly sealed plastic box, to vapor from 0.2% glutaraldehyde in PBS at room temperature (18° C.) for one hour. After washing thoroughly with distilled water, the NC filters were blocked with Blotto (10% non-fat dry milk in PBS) for two hours and washed in 1×Tween-PBS (0.1% Tween-20 in PBS) and 2×PBS, five minutes each.
(§5) The peptides were then screened for human IgE and mouse/rabbit IgG epitopes with individual sera (diluted 1:4 in PBS with 0.5% BSA), MAbs FMC A7 (Smart et al. (1983) Int. Arch. Allergy Clin. Immunol. 72: 243) and polyclonal rabbit anti-Lol p Ib antibody. The rabbit anti-sera was a gift from Dr. Jenny Roland, Alfred Hospital, Melbourne, Australia.
(§6) The intensity of each dot blot was measured by densitometer (Pharmacia LKB UltraScan XL, Sweden). Densitometric values greater than two were considered as positive binding in comparison to the background. For every peptide, the sera and antibody values have been added (score/peptide) and divided by the number of positive sera to express the final value as an average (score/sera). Sera C1 and C2 were not grass allergic and were used as negative controls. C refers to crude ryegrass pollen extract (1 μg/dot) as positive control.

[5] = test system: Mab FMC-A7 and rabbit polyclonal anti-Lol p Ib antiserum; test: Peptide dot blot immunoassay: mouse/rabbit IgG; assay type: binding
Experimental: as §3, §4, §5, §6

| Sequence | Binding of MAb 12.3 (MAb 12.3) | Binding of MAb 40.1 (MAb 40.1) | Binding of IgE from sera of allergic indivs. [1] | pI [2] | IgE binding [3] | Human IgE-reactivity (in words) [4] | IgE Binding (symbol) [4] | Mouse/rabbit IgG-reactivity (in words) [5] |
| --- | --- | --- | --- | --- | --- | --- | --- | --- |
| AKYDAFVTALTE [Peptide 14] | ++ | ++ | ++ | 7.3 | TIgE |  |  |  |
| AMTQAQKAGKPA [Peptide 30] |  |  |  |  |  | highest human IgE-reactivity | + (Densitometric values greater than two were considered as positive binding) |  |
| NECTGGAYETYK [Peptide 24] |  |  |  |  |  |  | + (Densitometric values greater than two were considered as positive binding) | highest mouse/rabbit IgG-reactivity |
| YAATVAAPEVKY [Peptide 27] |  |  |  |  |  |  | + (Densitometric values greater than two were considered as positive binding) |  |
| ESAFNKALNECT [Peptide 23] |  |  |  |  |  | highest human IgE-reactivity | + (Densitometric values greater than two were considered as positive binding) | highest mouse/rabbit IgG-reactivity |
| PGLIPKLNTAYD [Peptide 11] |  | ++ | - | 10.6 | AP12R,AP19R and TIgE |  |  |  |
| ATAANAAPTNDK [Peptide 21] |  |  |  |  |  | highest human IgE-reactivity | + (Densitometric values greater than two were considered as positive binding) |  |
| AALTKAITAMTQA [Peptide 29] |  |  |  |  |  |  | + (Densitometric values greater than two were considered as positive binding) |  |
| AATPAAAGGKAT [Peptide 3] |  | ++ | - | 6.45 | AP13R TIgE |  |  |  |
| ETYKFIPSLEAA [Peptide 25] |  |  |  |  |  |  | + (Densitometric values greater than two were considered as positive binding) |  |
| AVKPATEEVPAA [Peptide 17] |  | ++ | - | < 5.65 | TIgE |  |  |  |
| EVKYAVFEAALT [Peptide 28] |  |  |  |  |  |  |  | highest mouse/rabbit IgG-reactivity |
| GAATAAAGGYKA [Peptide 34] |  |  |  |  |  | highest human IgE-reactivity | + (Densitometric values greater than two were considered as positive binding) |  |
| GELQIVDKIDAA [Peptide 19] |  |  |  |  |  | highest human IgE-reactivity | + (Densitometric values greater than two were considered as positive binding) | highest mouse/rabbit IgG-reactivity |

Second part, led by results:

| Binding of MAb 12.3 (MAb 12.3) | Binding of MAb 40.1 (MAb 40.1) | Sequence | Binding of IgE from sera of allergic indivs. [1] | pI [2] | IgE binding [3] | Human IgE-reactivity (in words) [4] | IgE Binding (symbol) [4] | Mouse/rabbit IgG-reactivity (in words) [5] |
| --- | --- | --- | --- | --- | --- | --- | --- | --- |
| ++ | ++ | TAYDVAYKAAEG [Peptide 12] | ++ | 8.0 | AP12R,AP19R and TIgE |  |  |  |
|  | ++ | AAEGATPEAKYD [Peptide 13] |  | 7 | TIgE |  | + (Densitometric values greater than two were considered as positive binding) |  |
|  | ++ | IAGALEVHAVKPA [Peptide 16] | - | < 5.65 | TIgE | highest human IgE-reactivity | + (Densitometric values greater than two were considered as positive binding) |  |
| - | - | ADAGYTPAAAAT [Peptide 1] | - | 5.5 | AP13R TIgE |  |  | highest mouse/rabbit IgG-reactivity |
| - | - | ALTEGLRVIAGA [Peptide 15] | - | 9 | TIgE |  |  |  |
| - | - | FSESSKGLLATS [Peptide 9] | - | 7.2 | AP12R,AP19R and TIgE |  |  |  |
| - | - | KFKIFEAAFSES [Peptide 8] | - | 6.45 | AP12R,AP19R and TIgE |  |  |  |
|  | ++ | AANAPPADKFKI [Peptide 7] | - | 6 | AP12R,AP19R and TIgE | highest human IgE-reactivity | + (Densitometric values greater than two were considered as positive binding) | highest mouse/rabbit IgG-reactivity |
| - | - | LATSAAKAPGLI [Peptide 10] | - | 8.3 | AP12R,AP19R and TIgE |  | + (Densitometric values greater than two were considered as positive binding) |  |
|  | ++ | AAATPATPAATPA [Peptide 2] | - | 5.9 | AP13R TIgE |  |  |  |
|  | ++ | GFKAAVAAAANA [Peptide 6] | - | 6.45 | AP12R,AP19R and TIgE |  | + (Densitometric values greater than two were considered as positive binding) |  |
|  | ++ | GKATTDEQKLLE [Peptide 4] | - | 7 | AP13R TIgE |  |  |  |
| ++ | ++ | VPAAKIPTGELQI [Peptide 18] | ++ |  |  |  | + (Densitometric values greater than two were considered as positive binding) |  |
|  | ++ | KLLEDVNAGFKA [Peptide 5] | - | 6 | AP12R,AP19R and TIgE |  | + (Densitometric values greater than two were considered as positive binding) |  |
